Measured values reported in PubChem BioAssay AID330 (DTP/NCI, 2004).
Several values for one entry are separate records, joined by “and”; a condition that tells them apart may be missing. Equal entries are not always repeated. Toxic doses and inconclusive results are not listed.

Test system: P388 leukemia ip, CD2F1 mice, survival T/C
Assay: NCI In Vivo Anticancer Drug Screen. Data for tumor model P388 Leukemia (intraperitoneal) in CD2F1 (CDF1) mice
Settings: endpoint: median survival time, higher = longer survival
Procedure, shortened: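 Mice carrying the transplanted tumor received test compound or vehicle. Survival was recorded in each group, and the value is the treated-group measurement divided by that of the vehicle-treated control group.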

[1] = dose: 60.0 mg/kg/injection, schedule: Q01DX005 (ip), vehicle: saline with Tween-80
[2] = dose: 120.0 mg/kg/injection, schedule: Q01DX005 (ip), vehicle: saline with Tween-80
[3] = dose: 240.0 mg/kg/injection, schedule: Q01DX005 (ip), vehicle: saline with Tween-80
[4] = dose: 12.5 mg/kg/injection, schedule: Q01DX005 (ip), vehicle: saline with Tween-80
[5] = dose: 25.0 mg/kg/injection, schedule: Q01DX005 (ip), vehicle: saline with Tween-80
[6] = dose: 50.0 mg/kg/injection, schedule: Q01DX005 (ip), vehicle: saline with Tween-80
[7] = dose: 25.0 mg/kg/injection, schedule: Q01DX009 (ip), vehicle: saline with Tween-80
[8] = dose: 50.0 mg/kg/injection, schedule: Q01DX009 (ip), vehicle: saline with Tween-80
[9] = dose: 100.0 mg/kg/injection, schedule: Q01DX009 (ip), vehicle: saline with Tween-80
[10] = dose: 100.0 mg/kg/injection, schedule: Q04DX003 (ip), vehicle: saline with Tween-80
[11] = dose: 6.25 mg/kg/injection, schedule: Q01DX009 (ip), vehicle: saline with Tween-80
[12] = dose: 12.5 mg/kg/injection, schedule: Q01DX009 (ip), vehicle: saline with Tween-80
[13] = dose: 50.0 mg/kg/injection, schedule: Q01DX005 (ip), vehicle: Klucel (hydroxypropylcellulose) (HPC)
[14] = dose: 100.0 mg/kg/injection, schedule: Q01DX005 (ip), vehicle: Klucel (hydroxypropylcellulose) (HPC)
[15] = dose: 200.0 mg/kg/injection, schedule: Q01DX005 (ip), vehicle: Klucel (hydroxypropylcellulose) (HPC)

Cc1cc2c(c3oc(C4(C)OC4C4OC4C)cc(=O)c13)C(=O)c1c(O)c(C3CC(C)(N(C)C)C(O)C(C)O3)cc(C3CC(N(C)C)C(O)C(C)O3)c1C2=O (centres undefined)
T/C (dose: 0.02 mg/kg/injection, schedule: Q01DX005 (ip), vehicle: saline): 150 % of control | T/C (dose: 0.02 mg/kg/injection, schedule: Q03HX008 (ip), vehicle: saline): 122 % of control | T/C (dose: 0.02 mg/kg/injection, schedule: Q03HX016 (ip), vehicle: saline): 113 % of control | T/C (dose: 0.03 mg/kg/injection, schedule: Q01DX009 (ip), vehicle: saline): 95 % of control | T/C (dose: 0.03 mg/kg/injection, schedule: Q03HX008 (ip), vehicle: saline): 118 % of control | T/C (dose: 0.03 mg/kg/injection, schedule: Q03HX016 (ip), vehicle: saline): 109 % of control | T/C (dose: 0.03 mg/kg/injection, schedule: Q04DX003 (ip), vehicle: saline): 150 % of control | T/C (dose: 0.06 mg/kg/injection, schedule: Q01DX005 (ip), vehicle: saline): 100 % of control | T/C (dose: 0.06 mg/kg/injection, schedule: Q01DX009 (ip), vehicle: saline): 104 % of control | T/C (dose: 0.06 mg/kg/injection, schedule: Q03HX008 (ip), vehicle: saline): 122 % of control | T/C (dose: 0.06 mg/kg/injection, schedule: Q04DX003 (ip), vehicle: saline): 150 % of control | T/C (dose: 0.06 mg/kg/injection, schedule: Q08DX002 (ip), vehicle: saline): 150 % of control | T/C (dose: 0.12 mg/kg/injection, schedule: Q01DX001 (ip), vehicle: saline): 150 % of control | T/C (dose: 0.12 mg/kg/injection, schedule: Q03HX016 (ip), vehicle: saline): 113 % of control | T/C (dose: 6.25 micrograms/kg/injection, schedule: Q01DX009 (ip), vehicle: saline): 123 % of control | T/C (dose: 10.0 micrograms/kg/injection, schedule: Q01DX009 (ip), vehicle: water): 99 % of control | T/C (dose: 12.5 micrograms/kg/injection, schedule: Q01DX009 (ip), vehicle: saline): 101 % of control

C=CCSc1nnc(-c2ccc(C(C)(C)C)cc2)n1-c1cccc(C(F)(F)F)c1
T/C [1]: 100 % of control | T/C [2]: 100 % of control | T/C [3]: 94 % of control

CC(=O)Nc1ccc(S(=O)(=O)CC#N)cc1
T/C (dose: 50.0 mg/kg/injection, schedule: Q01DX009 (ip), vehicle: suspension in saline): 87 % of control | T/C (dose: 100.0 mg/kg/injection, schedule: Q01DX009 (ip), vehicle: suspension in saline): 93 % of control

CCCCCCCCCCCC1=C(O)C(=O)C(Cl)=C(O)C1=O
T/C [4]: 98 % of control | T/C [5]: 97 % of control | T/C [6]: 102 % of control and 90 % of control

O=C(CC(=O)N1CCN(c2ccccc2)CC1)N1CCN(c2ccccc2)CC1
T/C [7]: 95 % of control | T/C [8]: 97 % of control | T/C [9]: 98 % of control | T/C (dose: 100.0 mg/kg/injection, schedule: Q01DX009 (ip), vehicle: saline): 93 % of control

COc1ccc(/C=C/C(=O)c2ccc(OC)c(OC)c2)cc1OC
T/C [10]: 90 % of control | T/C (dose: 200.0 mg/kg/injection, schedule: Q04DX003 (ip), vehicle: saline with Tween-80): 95 % of control | T/C (dose: 400.0 mg/kg/injection, schedule: Q04DX003 (ip), vehicle: saline with Tween-80): 95 % of control

COC(=O)c1cc2c(nn1)C(=O)Nc1ccccc1C2(C)C
T/C [1]: 100 % of control | T/C [2]: 105 % of control | T/C [3]: 96 % of control

CC1CN1C1=C(F)C(=O)C(N2CC2C)=C(F)C1=O (centres undefined)
T/C (dose: 1.56 mg/kg/injection, schedule: Q01DX009 (ip), vehicle: Klucel (hydroxypropylcellulose) (HPC)): 104 % of control | T/C (dose: 3.12 mg/kg/injection, schedule: Q01DX009 (ip), vehicle: Klucel (hydroxypropylcellulose) (HPC)): 106 % of control and 110 % of control and 116 % of control | T/C (dose: 6.25 mg/kg/injection, schedule: Q01DX009 (ip), vehicle: Klucel (hydroxypropylcellulose) (HPC)): 105 % of control and 123 % of control

CC(C)(C)SC(=O)c1ccco1
T/C [8]: 118 % of control | T/C [9]: 114 % of control

Cc1c2cccc(Sc3ccccc3)c2c2c3c(cccc13)[S+](c1ccccc1)C2 (centres undefined)
T/C [11]: 113 % of control | T/C [12]: 115 % of control

FC(F)(F)/C([S-])=C(/[S-])C(F)(F)F.FC(F)(F)/C([S-])=C(/[S-])C(F)(F)F.FC(F)(F)/C([S-])=C(/[S-])C(F)(F)F.FC(F)(F)/C([S-])=C(/[S-])C(F)(F)F.[Co+3].[Co+3]
T/C (dose: 33.0 mg/kg/injection, schedule: Q04DX003 (ip), vehicle: other): 107 % of control | T/C (dose: 50.0 mg/kg/injection, schedule: Q04DX003 (ip), vehicle: other): 100 % of control

CNC(=O)OCc1c(Cl)nc2n1CCS2
T/C (dose: 25.0 mg/kg/injection, schedule: Q01DX001 (ip), vehicle: Klucel (hydroxypropylcellulose) (HPC)): 109 % of control | T/C (dose: 50.0 mg/kg/injection, schedule: Q01DX001 (ip), vehicle: Klucel (hydroxypropylcellulose) (HPC)): 109 % of control | T/C (dose: 100.0 mg/kg/injection, schedule: Q01DX001 (ip), vehicle: Klucel (hydroxypropylcellulose) (HPC)): 106 % of control

C[C@@H]1C[C@](O)([C@@H](C)Cl)C(=O)O[C@@H]2CCN3CC=C(COC(=O)[C@]1(C)O)[C@H]23
T/C (dose: 2.75 mg/kg/injection, schedule: Q01DX009 (ip), vehicle: saline): 104 % of control | T/C (dose: 3.75 mg/kg/injection, schedule: Q01DX009 (ip), vehicle: saline): 103 % of control | T/C (dose: 5.5 mg/kg/injection, schedule: Q01DX009 (ip), vehicle: saline): 104 % of control | T/C (dose: 7.5 mg/kg/injection, schedule: Q01DX009 (ip), vehicle: saline): 106 % of control | T/C (dose: 11.0 mg/kg/injection, schedule: Q01DX009 (ip), vehicle: saline): 113 % of control | T/C (dose: 15.0 mg/kg/injection, schedule: Q01DX009 (ip), vehicle: saline): 95 % of control | T/C (dose: 22.0 mg/kg/injection, schedule: Q01DX009 (ip), vehicle: saline): 104 % of control | T/C (dose: 30.0 mg/kg/injection, schedule: Q01DX009 (ip), vehicle: saline): 106 % of control

O=C1OC(COCc2ccccc2)C/C1=C\c1ccc2c(c1)OCO2 (centres undefined)
T/C (dose: 100.0 mg/kg/injection, schedule: Q04DX002 (ip), vehicle: saline with Tween-80): 95 % of control | T/C (dose: 200.0 mg/kg/injection, schedule: Q04DX002 (ip), vehicle: saline with Tween-80): 86 % of control | T/C (dose: 400.0 mg/kg/injection, schedule: Q04DX002 (ip), vehicle: saline with Tween-80): 86 % of control

NC(CSC(c1ccccc1)(c1ccccc1)c1ccc2ccccc2c1)C(=O)O (centres undefined)
T/C (dose: 3.13 mg/kg/injection, schedule: Q01DX009 (ip), vehicle: saline with Tween-80): 186 % of control | T/C (dose: 3.13 mg/kg/injection, schedule: Q01DX009 (ip), vehicle: water): 169 % of control | T/C [11]: 198 % of control | T/C (dose: 6.25 mg/kg/injection, schedule: Q01DX009 (ip), vehicle: water): 189 % of control | T/C [12]: 261 % of control | T/C (dose: 12.5 mg/kg/injection, schedule: Q01DX009 (ip), vehicle: water): 216 % of control | T/C [7]: 90 % of control | T/C (dose: 25.0 mg/kg/injection, schedule: Q01DX009 (ip), vehicle: water): 99 % of control

CCOC(=O)C(=CNc1cc(OC(C)=O)ccc1C)C(=O)OCC
T/C [13]: 110 % of control | T/C [14]: 100 % of control | T/C [15]: 96 % of control

CN(C)c1ccc2cc(-n3nnc4cc([N+](=O)[O-])ccc43)c(=O)oc2c1
T/C [4]: 100 % of control | T/C [5]: 99 % of control | T/C [6]: 90 % of control

O=C(O)c1c(Cl)cccc1Cl
T/C [7]: 109 % of control | T/C (dose: 25.0 mg/kg/injection, schedule: Q04DX003 (ip), vehicle: saline with Tween-80): 100 % of control | T/C [8]: 100 % of control | T/C (dose: 50.0 mg/kg/injection, schedule: Q04DX003 (ip), vehicle: saline with Tween-80): 95 % of control | T/C [9]: 100 % of control | T/C [10]: 95 % of control

O=C1CCC/C(c2ccccc2)=N\N=C/1c1ccccc1
T/C [13]: 106 % of control | T/C [14]: 106 % of control | T/C [15]: 103 % of control

O=C(O)CC(O)C(F)(F)C(F)(F)C(F)(F)F (centres undefined)
T/C (dose: 18.75 mg/kg/injection, schedule: Q04DX003 (ip), vehicle: saline): 100 % of control | T/C (dose: 37.5 mg/kg/injection, schedule: Q04DX003 (ip), vehicle: saline): 95 % of control | T/C (dose: 75.0 mg/kg/injection, schedule: Q04DX003 (ip), vehicle: saline): 109 % of control
